Where only a bound is given, the exact number is not on record here.

Data set [1] in a line: Parallel artificial membrane permeability assay (PAMPA). In kind it is in vitro ADME. Here is the method: Compound Papp values were determined by normalizing the experimental compound absorbance to the compounds’ absorbances at equilibrium, membrane porosity, buffer volume, and time (s). Two or more replicate assays were obtained on separate days for each pH.
(In PAMPA a lipid-coated filter parts donor from acceptor wells.)

The nature of data set [2]: Solubility limit, turbidimetric assay. In kind it is physicochemical. To be noted: for Average Sol (solubility limit) / Sol 1 (solubility limit) / Sol 2 (solubility limit) / Sol 3 (solubility limit) / Sol 4 (solubility limit): upper limit 200 µM; for Sol 4 (solubility limit): pH 7.4, replicate 4. Here is the method:
Solubility limits were determined by a turbidimetric assay, as described ([27]), with the solubility limit being defined as the compound concentration where light scattering began to rise. Two or more replicate assays were performed for each compound at each pH on different days.

In data set [3] the test system is HBV replication (HBV plus-polarity DNA strand). Nature of the data set: HBV replication inhibition, strand preferential qPCR in hepDES19 cells. As to conditions: for EC50: 72 h exposure, HBV plus-polarity strand suppression, highest concentration tested 100 µM, mean ± SD, read-out: HepDES19 EC50. The format is cell-based, hepatitis B virus. Here is the method:
HBV replication inhibition was measured in hepDES19 cells following 72 h compound exposure without compound replenishment. EC50 values were determined by HBV plus-polarity strand suppression using a strand preferential qPCR assay, as described previously ([28]). Three or more replicate values were obtained on different days.
(Real-time PCR tracks product formation cycle by cycle.)

The subject of another data set is HepDES19 cells. To be noted: read-out: HepDES19 CC50; 72 h, MTS; highest concentration tested 100 µM; mean ± SD.
Another data set is described as follows: Microsome stability. To be noted: both sexes, human liver microsomes, 1 µM compound, 30 min, NADPH. The format is in vitro ADME, human. The method, then:
Human liver microsomes (gender pooled, 50 individuals) were purchased from BioIVT and stored at −80°C until use. […] Reactions were initiated by addition of 1.2 mM NADPH. […] Microsomal proteins were pelleted at 4,000 × g and the supernatant was analyzed via LCMS/MS. […] The ln percent remaining values were plotted against time, the negative slope was taken (k), and compound half-life (t1/2) was determined using ln2/k. Intrinsic clearance (Clint [µL/min/mg]) was calculated by (V × ln2)/t1/2, where V is the incubation volume (µL) divided by the protein concentration in the reaction (mg) ([31]).

Where [4] appears, read: pH 5 (fed simulated intestinal fluid).
Setting [5] is: pH 6.5 (fasted simulated intestinal fluid).

For `COc1ccc(CON=C(C)c2c(C)cc(=O)n(O)c2O)cc1OC` [Compound 1669], the “Avg Papp (PAMPA)” value was 56.7 ×10⁻⁶ cm/s in data set [1] (FeSSIF pH 5) and 2.12 ×10⁻⁶ cm/s in data set [1] (pH 7.4). The “Interpretation (PAMPA Papp)” value in data set [1] (FeSSIF pH 5) and in data set [1] (pH 7.4) was “H (H: Papp > 1*10-6)” throughout. For the same compound, the “Papp 1 (PAMPA)” value turned out to be 57.9 ×10⁻⁶ cm/s in data set [1] (FeSSIF pH 5, replicate 1) and 2.03 ×10⁻⁶ cm/s in data set [1] (pH 7.4, replicate 1). The “Papp 2 (PAMPA)” value in data set [1] (FeSSIF pH 5, replicate 2) came to 55.5 ×10⁻⁶ cm/s; in data set [1] (pH 7.4, replicate 2), 2.2 ×10⁻⁶ cm/s. For the same compound, the “Average Sol (solubility limit)” value in data set [2] (setting [4]), in data set [2] (setting [5]) and in data set [2] (pH 7.4 (DMEM-F12 with 10% FBS)) was above 200 µM throughout. Moreover, the “Sol 1 (solubility limit)” value in data set [2] (pH 5, replicate 1) is listed as above 200 µM; in data set [2] (pH 6.5, replicate 1), above 200 µM; in data set [2] (pH 7.4, replicate 1), above 200 µM. Besides, the “Sol 2 (solubility limit)” value is recorded as above 200 µM in data set [2] (pH 5, replicate 2); above 200 µM in data set [2] (pH 6.5, replicate 2); above 200 µM in data set [2] (pH 7.4, replicate 2). Besides, the “HepDES19 SI (CC50/EC50)” value in data set [3] turned out to be 80.6. In addition, the EC50 in data set [3] was found to be 1.13 ± 0.955 µM. The CC50 in the data set on HepDES19 cells was determined as 91 ± 15.6 µM.

As to `CC(=NOCc1ccccc1C)c1c(C)cc(=O)n(O)c1O` [Compound 1681], the “Avg Papp (PAMPA)” value in data set [1] (FeSSIF pH 5) was 30 ×10⁻⁶ cm/s; in data set [1] (pH 7.4), 4.73 ×10⁻⁶ cm/s. Moreover, the “Interpretation (PAMPA Papp)” value in data set [1] (FeSSIF pH 5) and in data set [1] (pH 7.4) was “H (H: Papp > 1*10-6)” each time. The “Papp 1 (PAMPA)” value came out at 28.5 ×10⁻⁶ cm/s in data set [1] (FeSSIF pH 5, replicate 1) and 3.11 ×10⁻⁶ cm/s in data set [1] (pH 7.4, replicate 1). For the same compound, the “Papp 2 (PAMPA)” value was 31.5 ×10⁻⁶ cm/s in data set [1] (FeSSIF pH 5, replicate 2) and 9.39 ×10⁻⁶ cm/s in data set [1] (pH 7.4, replicate 2). Further, in data set [1] (pH 7.4, replicate 3), the “Papp 3 (PAMPA)” value was 4.69 ×10⁻⁶ cm/s. In data set [1] (pH 7.4, replicate 4), the “Papp 4 (PAMPA)” value was found to be 1.74 ×10⁻⁶ cm/s. Also, the “Average Sol (solubility limit)” value is recorded as above 200 µM in data set [2] (setting [4]), above 200 µM in data set [2] (setting [5]) and 106 µM in data set [2] (pH 7.4 (DMEM-F12 with 10% FBS)). In addition, the “Sol 1 (solubility limit)” value in data set [2] (pH 5, replicate 1) is reported as above 200 µM; in data set [2] (pH 6.5, replicate 1) it was above 200 µM; in data set [2] (pH 7.4, replicate 1), 25 µM. Also, the “Sol 2 (solubility limit)” value in data set [2] (pH 5, replicate 2) is listed as above 200 µM; in data set [2] (pH 6.5, replicate 2) it was above 200 µM; in data set [2] (pH 7.4, replicate 2), 100 µM. The “Sol 3 (solubility limit)” value in data set [2] (pH 7.4, replicate 3) is listed as above 200 µM. In addition, the “Sol 4 (solubility limit)” value in data set [2] is listed as 100 µM. The “HepDES19 SI (CC50/EC50)” value in data set [3] is 25.2. Also, the EC50 in data set [3] came out at 3.97 ± 1.19 µM. Moreover, the CC50 in the data set on HepDES19 cells was above 100 µM.

As to `CC(=NOCc1ccc(Br)cc1)c1c(C)cc(=O)n(O)c1O` [Compound 1717], the “Avg Papp (PAMPA)” value in data set [1] (pH 7.4) came to 1.61 ×10⁻⁶ cm/s. In addition, the “Interpretation (PAMPA Papp)” value in data set [1] (pH 7.4) is recorded as “H (H: Papp > 1*10-6)”. The “Papp 1 (PAMPA)” value in data set [1] (pH 7.4, replicate 1) was found to be 1.61 ×10⁻⁶ cm/s. The “Papp 2 (PAMPA)” value in data set [1] (pH 7.4, replicate 2) was determined as 1.61 ×10⁻⁶ cm/s. Also, the figures for the “Average Sol (solubility limit)” value in data set [2] (setting [4]), in data set [2] (setting [5]) and in data set [2] (pH 7.4 (DMEM-F12 with 10% FBS)) were 100 µM, 50 µM and 138 µM, respectively. Besides, the “Sol 1 (solubility limit)” value in data set [2] (pH 5, replicate 1) came to 100 µM; in data set [2] (pH 6.5, replicate 1), 50 µM; in data set [2] (pH 7.4, replicate 1), 50 µM. The “Sol 2 (solubility limit)” value was 100 µM in data set [2] (pH 5, replicate 2); 50 µM in data set [2] (pH 6.5, replicate 2); above 200 µM in data set [2] (pH 7.4, replicate 2). In addition, the Solubility limit category result in data set [2] (setting [5]) is recorded as “partially soluble (partially soluble (100–1 µM))”. Moreover, the “Sol 3 (solubility limit)” value was 50 µM in data set [2] (pH 6.5, replicate 3) and above 200 µM in data set [2] (pH 7.4, replicate 3). Moreover, the “Sol 4 (solubility limit)” value in data set [2] is 100 µM. Moreover, the “HepDES19 SI (CC50/EC50)” value in data set [3] is on record as 52.7. In data set [3], the EC50 came to 1.13 ± 0.186 µM. For the same compound, the CC50 in the data set on HepDES19 cells was 76.7 ± 30.3 µM.

With `CC(C)c1nc(CN(C)C(=O)N[C@H](C(=O)N[C@@H](Cc2ccccc2)C[C@H](O)[C@H](Cc2ccccc2)NC(=O)OCc2cncs2)C(C)C)cs1` [Ritonavir, ritonavir, reference compound], the half-life at 1 µM in the data set “Microsome stability” came out at 23.3 min. Moreover, the microsomal CLint at 1 µM in the data set “Microsome stability” (read-out: Clearance (intrinsic clearance, Clint)) was 45.2 µL/min/mg.

The EC50 is the midpoint of the concentration-response curve. The term CC50 denotes the concentration that lowers cell viability or growth by half. The term half-life denotes the time needed for the level to fall by half in the phase considered. Low readings indicate fast loss, high ones slow loss.

These data come from paper PMC11784145, “Efficacy and in vitro pharmacological assessment of novel N-hydroxypyridinediones as hepatitis B virus ribonuclease H inhibitors” (Antimicrobial Agents and Chemotherapy, 2024).
